Holding throughout (assay type): in vivo
The test system of series [1] is male Fischer 344 rats. The series can be described thus: Blood urea nitrogen. Conditions: for Blood urea nitrogen: i.p. in corn oil, 24 h, mean ± SE, N = 3–4.
Series [2] relates to male Fischer 344 rats. Description: Liver histology. Conditions: 24 h.
The subject of series [3] is male Fischer 344 rats. Description: Kidney histology. To be noted: all doses evaluated, i.p., 24 h, vs corn oil.
In series [4] the test system is male Fischer 344 rats. Description: Serum alanine aminotransferase. Conditions: 24 h; for Change in serum ALT levels: all four doses (0.2, 0.4, 0.6, 1.0 mmol/kg) i.p., vs corn oil.
Series [5] concerns male Fischer 344 rats. Description: Liver weight 24 h after a single i.p. dose. To be noted: i.p. in corn oil, mean ± SE, N = 3–4.
Series [6] deals with male Fischer 344 rats. The series can be described thus: Urine volume after a single i.p. dose. Conditions: for Twenty-four-hour urine volume: i.p. in corn oil, mean ± SE, N = 3–4.
Series [7] relates to male Fischer 344 rats. Description: Kidney weight 24 h after a single i.p. dose. To be noted: i.p. in corn oil, mean ± SE, N = 3–4.
Series [8] concerns male Fischer 344 rats. The series can be described thus: Six-hour urine protein content after a single i.p. dose. Conditions: i.p. in corn oil, mean ± SE, N = 3–4.
The mark [9] stands for this setting: dose 0.2 (head mg/kg; text mmol/kg).
The mark [10] stands for this setting: dose 0.4 (head mg/kg; text mmol/kg).
The mark [11] stands for this setting: dose 0.6 (head mg/kg; text mmol/kg).
The mark [12] stands for this setting: dose 1.0 (head mg/kg; text mmol/kg).
Where [13] appears, read: all doses (0.2–1.0 mmol/kg) i.p.

Each structure is given as a SMILES string. Marks after values point to notes of the source that are not given here.

In the case of `O=C1SCCN1c1cc(Cl)cc(Cl)c1` [2-DCTD, 3-(3,5-dichlorophenyl)-2-thiazolidinone], the Blood urea nitrogen is on record as 23.0 ± 1.2^g mg/dl in the series on male Fischer 344 rats [1] (setting [9]), 22.3 ± 1.1^g mg/dl with male Fischer 344 rats [1] (setting [10]), 23.9 ± 0.9^g mg/dl with male Fischer 344 rats [1] (setting [11]) and 24.4 ± 0.7^g mg/dl in the series with male Fischer 344 rats [1] (setting [12]). Besides, in the series on male Fischer 344 rats [2] (setting [13]), the “Liver morphology” value is “generally normal, although some nuclear condensation was evident”. For the same molecule, in the series with male Fischer 344 rats [3], the “Kidney morphology” value was “did not produce any noticeable changes in the kidney morphology”. Besides, in the series with male Fischer 344 rats [4], the “Change in serum ALT levels” value is given as “did not exhibit any significant changes in serum ALT levels”. Besides, the Liver weight with male Fischer 344 rats [5] (setting [9]) is on record as 3.96 ± 0.10^d g/100% BW; in the series on male Fischer 344 rats [5] (setting [10]), 3.71 ± 0.11^d g/100% BW; with male Fischer 344 rats [5] (setting [11]), 3.74 ± 0.11^d g/100% BW; in the series on male Fischer 344 rats [5] (setting [12]), 3.85 ± 0.15^d g/100% BW. The Twenty-four-hour urine volume is 6.0 ± 0.8^d ml in the series with male Fischer 344 rats [6] (setting [9]), 4.3 ± 0.3^d ml with male Fischer 344 rats [6] (setting [10]), 5.0 ± 0.7^d ml in the series with male Fischer 344 rats [6] (setting [11]) and 4.4 ± 1.3^d ml in the series with male Fischer 344 rats [6] (setting [12]). The Kidney weight is reported as 0.39 ± 0.01^e g/ 100% BW in the series with male Fischer 344 rats [7] (setting [9]), 0.38 ± 0.01^e g/ 100% BW in the series with male Fischer 344 rats [7] (setting [10]), 0.40 ± 0.01^e g/ 100% BW in the series with male Fischer 344 rats [7] (setting [11]) and 0.37 ± 0.01^e g/ 100% BW with male Fischer 344 rats [7] (setting [12]). The “Six-hour urine protein content” value in the series with male Fischer 344 rats [8] (setting [9]) is on record as 1.6 ± 0.4^d mg; in the series on male Fischer 344 rats [8] (setting [10]), 1.8 ± 0.1^d mg; with male Fischer 344 rats [8] (setting [11]), 2.2 ± 0.1^d mg; in the series on male Fischer 344 rats [8] (setting [12]), 2.0 ± 0.1^d mg.

For the molecule `O=C1CSCN1c1cc(Cl)cc(Cl)c1` [4-DCTD, 3-(3,5-dichlorophenyl)-4-thiazolidinone], the Blood urea nitrogen is listed as 26.8 ± 1.5^d mg/dl in the series with male Fischer 344 rats [1] (setting [9]), 25.6 ± 1.9^d mg/dl in the series with male Fischer 344 rats [1] (setting [10]), 33.8 ± 2.4*,^e mg/dl in the series on male Fischer 344 rats [1] (setting [11]) and 42.5 ± 1.1*,^f mg/dl in the series with male Fischer 344 rats [1] (setting [12]). Moreover, the “Liver morphology” value with male Fischer 344 rats [2] (setting [13]) is listed as “no changes in hepatic morphology”. Further, the “Kidney morphology” value in the series on male Fischer 344 rats [3] was “Minor swelling in the proximal tubular cells and slight dilation of collecting tubules”. Besides, the “Change in serum ALT levels” value with male Fischer 344 rats [4] is on record as “did not exhibit any significant changes in serum ALT levels”. Further, the Liver weight in the series with male Fischer 344 rats [5] (setting [9]) is 3.74 ± 0.23^c g/100% BW; in the series on male Fischer 344 rats [5] (setting [10]) it was 3.96 ± 0.18^c g/100% BW; in the series with male Fischer 344 rats [5] (setting [11]), 3.46 ± 0.09^c g/100% BW; in the series on male Fischer 344 rats [5] (setting [12]) it was 3.81 ± 0.15^c g/100% BW. Moreover, the “Diuresis / increase in urine volume” value in the series with male Fischer 344 rats [6] (all doses, compared to controls, not dose-dependent) was “approximately three and a half-fold increase”. In addition, the Twenty-four-hour urine volume with male Fischer 344 rats [6] (setting [9]) is 12.3 ± 1.7*,^c ml; with male Fischer 344 rats [6] (setting [10]) it was 11.3 ± 2.2*,^c ml; with male Fischer 344 rats [6] (setting [11]), 9.1 ± 1.6*,^c ml; in the series with male Fischer 344 rats [6] (setting [12]) it was 12.3 ± 1.0*,^c ml. Also, the Kidney weight in the series on male Fischer 344 rats [7] (setting [9]) was 0.40 ± 0.01^d g/ 100% BW; in the series with male Fischer 344 rats [7] (setting [10]), 0.37 ± 0.01^d g/ 100% BW; in the series on male Fischer 344 rats [7] (setting [11]), 0.41 ± 0.01^d g/ 100% BW; in the series on male Fischer 344 rats [7] (setting [12]), 0.42 ± 0.01^d g/ 100% BW. Also, the “Six-hour urine protein content” value with male Fischer 344 rats [8] (setting [9]) is 1.8 ± 0.3^c mg; in the series on male Fischer 344 rats [8] (setting [10]) it was 1.6 ± 0.2^c mg; with male Fischer 344 rats [8] (setting [11]), 1.9 ± 0.4^c mg; with male Fischer 344 rats [8] (setting [12]) it was 2.8 ± 0.3^c mg.

Turning to `O=C1CSC(=O)N1c1ccc(Cl)cc1` [CPTD, 3-(4-chlorophenyl)-2,4-thiazolidinedione], in the series with male Fischer 344 rats [1] (all dosages, compared to corn oil controls), the “Increase in BUN levels” value is on record as 1.8 fold. Moreover, the Blood urea nitrogen is 37.9 ± 0.6*,^c mg/dl with male Fischer 344 rats [1] (setting [9]), 38.1 ± 1.7*,^c mg/dl in the series with male Fischer 344 rats [1] (setting [10]), 40.4 ± 2.7*,^c mg/dl with male Fischer 344 rats [1] (setting [11]) and 34.9 ± 1.8*,^c mg/dl in the series on male Fischer 344 rats [1] (setting [12]). Also, the “Liver morphology” value is “signs of liquefactive necrosis” in the series on male Fischer 344 rats [2] (1.0 mmol/kg i.p.) and “necrotic lesions with acute inflammatory response” in the series on male Fischer 344 rats [2] (setting [13]). Besides, the “Kidney morphology” value with male Fischer 344 rats [3] is given as “minor swelling in some proximal tubular cells”. In the series with male Fischer 344 rats [4] (1.0 mmol/kg i.p. in corn oil, corn oil controls 36.0 ± 11.3), the “serum alanine aminotransferase (ALT) activity” value was determined as 1622.5 ± 218.5 Sigma-Frankel units/ml. In addition, the “Change in serum ALT levels” value in the series on male Fischer 344 rats [4] is “significantly elevated”. The Liver weight with male Fischer 344 rats [5] (setting [9]) is 3.62 ± 0.16^c g/100% BW; with male Fischer 344 rats [5] (setting [10]), 3.84 ± 0.07^c g/100% BW; with male Fischer 344 rats [5] (setting [11]) it was 4.36 ± 0.06*,^d g/100% BW; in the series on male Fischer 344 rats [5] (setting [12]), 3.98 ± 0.14*,^c g/100% BW. The Twenty-four-hour urine volume in the series on male Fischer 344 rats [6] (setting [9]) is given as 5.7 ± 1.5^b ml; in the series on male Fischer 344 rats [6] (setting [10]), 12.4 ± 4.6*,^c ml; in the series on male Fischer 344 rats [6] (setting [11]), 16.6 ± 0.8*,^c ml; in the series on male Fischer 344 rats [6] (setting [12]), 15.3 ± 2.7*,^c ml. Further, the Kidney weight is listed as 0.39 ± 0.02^b g/ 100% BW in the series with male Fischer 344 rats [7] (setting [9]), 0.41 ± 0.01^b g/ 100% BW in the series with male Fischer 344 rats [7] (setting [10]), 0.46 ± 0.02*,^c g/ 100% BW in the series with male Fischer 344 rats [7] (setting [11]) and 0.51 ± 0.04*,^c g/ 100% BW in the series with male Fischer 344 rats [7] (setting [12]). Further, the “Six-hour urine protein content” value is 2.0 ± 0.1^c mg in the series with male Fischer 344 rats [8] (setting [9]), 1.9 ± 0.1^c mg with male Fischer 344 rats [8] (setting [10]), 2.0 ± 0.1^c mg in the series with male Fischer 344 rats [8] (setting [11]) and 1.9 ± 0.1^c mg in the series with male Fischer 344 rats [8] (setting [12]).

As to `O=C1CSC(=O)N1c1cc(C(F)(F)F)cc(C(F)(F)F)c1` [DFMPT, 3-[3,5-bis(trifluoromethyl)phenyl]-2,4-thiazolidinedione], the Blood urea nitrogen was 19.6 ± 0.5^e mg/dl in the series with male Fischer 344 rats [1] (setting [9]), 21.7 ± 0.4^e mg/dl in the series on male Fischer 344 rats [1] (setting [10]), 22.5 ± 0.5^e mg/dl with male Fischer 344 rats [1] (setting [11]) and 32.7 ± 1.4*,^f mg/dl in the series with male Fischer 344 rats [1] (setting [12]). For the same molecule, in the series with male Fischer 344 rats [2] (setting [13]), the “Liver morphology” value is given as “did not show any noticeable changes in morphology”. The “Kidney morphology” value in the series with male Fischer 344 rats [3] is given as “minor swelling in some proximal tubular cells”. Further, the “Change in serum ALT levels” value in the series on male Fischer 344 rats [4] is listed as “normal”. The Liver weight in the series with male Fischer 344 rats [5] (setting [9]) was 3.82 ± 0.12^f g/100% BW; with male Fischer 344 rats [5] (setting [10]), 3.59 ± 0.10^f g/100% BW; in the series on male Fischer 344 rats [5] (setting [11]), 3.78 ± 0.07^f g/100% BW; in the series with male Fischer 344 rats [5] (setting [12]) it was 4.05 ± 0.15*,^f g/100% BW. In addition, the Twenty-four-hour urine volume is on record as 10.1 ± 1.3*,^f ml with male Fischer 344 rats [6] (setting [9]), 14.1 ± 2.6*,^f,^g ml in the series with male Fischer 344 rats [6] (setting [10]), 20.0 ± 3.1*,^g,^h ml in the series with male Fischer 344 rats [6] (setting [11]) and 23.5 ± 1.8*,^h ml in the series on male Fischer 344 rats [6] (setting [12]). Further, the Kidney weight in the series on male Fischer 344 rats [7] (setting [9]) is 0.40 ± 0.01^g g/ 100% BW; in the series with male Fischer 344 rats [7] (setting [10]) it was 0.42 ± 0.03^g g/ 100% BW; in the series with male Fischer 344 rats [7] (setting [11]) it was 0.30 ± 0.09^g g/ 100% BW; in the series on male Fischer 344 rats [7] (setting [12]), 0.48 ± 0.01*,^h g/ 100% BW. The “Six-hour urine protein content” value is 1.1 ± 0.3^e mg in the series on male Fischer 344 rats [8] (setting [9]), 1.6 ± 0.2^e mg in the series with male Fischer 344 rats [8] (setting [10]), 1.5 ± 0.2^e mg in the series on male Fischer 344 rats [8] (setting [11]) and 1.0 ± 0.2^e mg in the series with male Fischer 344 rats [8] (setting [12]).

The record behind these values is publication PMC3175016 (Journal of applied toxicology : JAT, 2011).
